Assays:
Assay in all cases: Histone peptide microarray
Format in all cases: binding, human
[1] = system: PHF21A; details: GST-tagged PHF21A; sheet Array Heatmap; each array performed twice, total n = 4
Method in brief: (§1)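 Each reader, produced as a GST fusion and purified, was tested at 0.5 μM on synthetic histone peptides (293 in total) carrying single or combinatorial marks. Intensities averaged over four replicates.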

[2] = system: DIDO1; details: GST-tagged DIDO1; sheet Array Heatmap; each array performed twice, total n = 4
Method in brief: as §1

[3] = system: KDM5B (3); details: GST-tagged KDM5B (3); sheet Array Heatmap; each array performed twice, total n = 4
Method in brief: as §1

[4] = system: PHRF1 (RP); details: GST-tagged PHRF1 (RP); sheet Array Heatmap; each array performed twice, total n = 4
Method in brief: as §1

[5] = system: PHF8; details: GST-tagged PHF8; sheet Array Heatmap; each array performed twice, total n = 4
Method in brief: as §1

[6] = system: AIRE (PP); details: GST-tagged AIRE (PP); sheet Array Heatmap; each array performed twice, total n = 4
Method in brief: as §1

[7] = system: ING4; details: GST-tagged ING4; sheet Array Heatmap; each array performed twice, total n = 4
Method in brief: as §1

[8] = system: RAG2; details: GST-tagged RAG2; sheet Array Heatmap; each array performed twice, total n = 4
Method in brief: as §1

[9] = system: CHD5 (PPCC); details: GST-tagged CHD5 (PPCC = Dual PHD + Dual Chromodomain); sheet Array Heatmap; each array performed twice, total n = 4
Method in brief: as §1

[10] = system: PHF13; details: GST-tagged PHF13; sheet Array Heatmap; each array performed twice, total n = 4
Method in brief: as §1

[11] = system: KDM7A; details: GST-tagged KDM7A; sheet Array Heatmap; each array performed twice, total n = 4
Method in brief: as §1

[12] = system: CHD5 (PCC); details: GST-tagged CHD5 (PCC = PHD + Dual Chromodomain); sheet Array Heatmap; each array performed twice, total n = 4
Method in brief: as §1

[13] = system: KDM5A (1); details: GST-tagged KDM5A (1); sheet Array Heatmap; each array performed twice, total n = 4
Method in brief: as §1

[14] = system: SP140L; details: GST-tagged SP140L; sheet Array Heatmap; each array performed twice, total n = 4
Method in brief: as §1

[15] = system: DPF2 (PPC2W2); details: GST-tagged DPF2 (PPC2W2 = Dual PHD + C2W2-type Zn-finger); sheet Array Heatmap; each array performed twice, total n = 4
Method in brief: as §1

[16] = system: ING3; details: GST-tagged ING3; sheet Array Heatmap; each array performed twice, total n = 4
Method in brief: as §1

[17] = system: TRIM66 (PB); details: GST-tagged TRIM66 (PB = PHD + Bromodomain); sheet Array Heatmap; each array performed twice, total n = 4
Method in brief: as §1

[18] = system: TAF3; details: GST-tagged TAF3; sheet Array Heatmap; each array performed twice, total n = 4
Method in brief: as §1

[19] = system: ING2; details: GST-tagged ING2; sheet Array Heatmap; each array performed twice, total n = 4
Method in brief: as §1

[20] = system: KDM5A (3); details: GST-tagged KDM5A (3); sheet Array Heatmap; each array performed twice, total n = 4
Method in brief: as §1

[21] = system: PHF23; details: GST-tagged PHF23; sheet Array Heatmap; each array performed twice, total n = 4
Method in brief: as §1

[22] = system: ING1; details: GST-tagged ING1; sheet Array Heatmap; each array performed twice, total n = 4
Method in brief: as §1

[23] = system: MORC3 (CW); details: GST-tagged MORC3 (CW = CW-type Zn-finger); sheet Array Heatmap; each array performed twice, total n = 4
Method in brief: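 GST-tagged PHD readers, 0.5 μM, probed on a microarray of 293 synthetic histone peptides carrying single or combinatorial PTMs (optimized Petell protocol). Signals are averaged over 4 replicates and expressed as relative binding.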

[24] = system: KDM5B (1); details: GST-tagged KDM5B (1); sheet Array Heatmap; each array performed twice, total n = 4
Method in brief: as §1

[25] = system: BPTF (PB); details: GST-tagged BPTF (PB = PHD + Bromodomain); sheet Array Heatmap; each array performed twice, total n = 4
Method in brief: as §1

[26] = system: ING5; details: GST-tagged ING5; sheet Array Heatmap; each array performed twice, total n = 4
Method in brief: as §1

[27] = system: CHD4 (PPCC); details: GST-tagged CHD4 (PPCC = Dual PHD + Dual Chromodomain); sheet Array Heatmap; each array performed twice, total n = 4
Method in brief: as §1

[28] = system: BAZ2B; details: GST-tagged BAZ2B; sheet Array Heatmap; each array performed twice, total n = 4
Method in brief: as §1

[29] = system: KDM4C (TTP); details: GST-tagged KDM4C (TTP = Tandem Tudor domain + PHD); sheet Array Heatmap; each array performed twice, total n = 4
Method in brief: as §1

[30] = system: PHF2; details: GST-tagged PHF2; sheet Array Heatmap; each array performed twice, total n = 4
Method in brief: as §1

[31] = system: MLL5; details: GST-tagged MLL5; sheet Array Heatmap; each array performed twice, total n = 4
Method in brief: as §1

Row | Substance | Array Heatmap signal (histone peptide microarray) [1] | Array Heatmap signal (histone peptide microarray) [2] | Array Heatmap signal (histone peptide microarray) [3] | Array Heatmap signal (histone peptide microarray) [4] | Array Heatmap signal (histone peptide microarray) [5] | Array Heatmap signal (histone peptide microarray) [6] | Array Heatmap signal (histone peptide microarray) [7] | Array Heatmap signal (histone peptide microarray) [8] | Array Heatmap signal (histone peptide microarray) [9] | Array Heatmap signal (histone peptide microarray) [10] | Array Heatmap signal (histone peptide microarray) [11] | Array Heatmap signal (histone peptide microarray) [12] | Array Heatmap signal (histone peptide microarray) [13] | Array Heatmap signal (histone peptide microarray) [14] | Array Heatmap signal (histone peptide microarray) [15] | Array Heatmap signal (histone peptide microarray) [16] | Array Heatmap signal (histone peptide microarray) [17] | Array Heatmap signal (histone peptide microarray) [18] | Array Heatmap signal (histone peptide microarray) [19] | Array Heatmap signal (histone peptide microarray) [20] | other results
1 | H3K4me3 + K14ac: H3 1-20 | 0.4155 | 1 | 0.7921 | 0.6002 | 0.6468 | 0.3995 | 0.6504 | 0.9484 | 0.5519 | 0.8156 | 0.4569 | 0.7404 | 0.4609 | 0.3446 | 0.7495 | 0.9261 | 0.6346 | 0.7363 | 0.9757 | 0.8892 | Array Heatmap signal (histone peptide microarray) [21]: 0.8632; Array Heatmap signal (histone peptide microarray) [22]: 0.9202; Array Heatmap signal (histone peptide microarray) [23]: 0.8691; Array Heatmap signal (histone peptide microarray) [24]: 0.7346; Array Heatmap signal (histone peptide microarray) [25]: 0.8401; Array Heatmap signal (histone peptide microarray) [26]: 0.4275; Array Heatmap signal (histone peptide microarray) [27]: 0.6173; Array Heatmap signal (histone peptide microarray) [28]: 0.6127; Array Heatmap signal (histone peptide microarray) [29]: 0.599; Array Heatmap signal (histone peptide microarray) [30]: 0.9532; Array Heatmap signal (histone peptide microarray) [31]: 0.8336
2 | H3K4me3 + K18ac: H3 1-20 | 0.4388 | 0.9924 | 0.8599 | 0.7444 | 0.6791 | 0.4183 | 0.674 | 0.6973 | 0.5532 | 0.813 | 0.4973 | 0.8106 | 0.4457 | 0.3614 | 0.7175 | 0.7492 | 0.639 | 0.7205 | 0.9902 | 0.9747 | Array Heatmap signal (histone peptide microarray) [21]: 1; Array Heatmap signal (histone peptide microarray) [22]: 1; Array Heatmap signal (histone peptide microarray) [23]: 0.8723; Array Heatmap signal (histone peptide microarray) [24]: 0.7261; Array Heatmap signal (histone peptide microarray) [25]: 0.7125; Array Heatmap signal (histone peptide microarray) [26]: 0.4874; Array Heatmap signal (histone peptide microarray) [27]: 0.6241; Array Heatmap signal (histone peptide microarray) [28]: 0.4486; Array Heatmap signal (histone peptide microarray) [29]: 0.6519; Array Heatmap signal (histone peptide microarray) [30]: 1; Array Heatmap signal (histone peptide microarray) [31]: 0.8685

Source: paper PMC6979384, “Characterization of the plant homeodomain (PHD) reader family for their histone tail interactions” (Epigenetics & Chromatin, 2020)
